Data published in publication PMC10141604, “Small-Molecule Inhibition of Androgen Receptor Dimerization as a Strategy against Prostate Cancer” (ACS Central Science, 2023).

Columns and labels:
AR LBP = target: T1, AR LBP (Rattus norvegicus, UniProt P15207); test: Competitive ligand-binding assay (PolarScreen AR competitor assay)
T1 construct: purchased Invitrogen Life Technologies A15880
Experimental: Competitive Ligand Binding Assay
The binding affinities of M17 and M17-B15 to the LBP of AR LBD were determined
using PolarScreen™ Androgen Receptor Competitor Assay Kit (#A15880, Invitrogen Life
Technologies) according to the user manual. […]

[1] = test system: endogenous PSA and AR in LNCaP cells; test: Western blot of PSA and AR in LNCaP cells; assay type: cell-based; details: 10 nM DHT, 48 h
Experimental: individually, and all in the presence of 10 nM DHT and incubated for 48 h. Then, the cells were harvested, followed by separating the cell lysate using 10% SDS-PAGE and electro-transfer to a polyvinylidene fluoride (PVDF) membrane (Bio -Rad). Blocking buffer (#P0023B, Beyotime Biotechnology) were used to block the membranes. After 0.5
h incubation at room temperature, each membrane was further incubated with specific
Lamin B1, #AF1408, Beyotime Biotechnology) and then the corresponding secondary antibody (HRP-conjugated Goat Anti-Rabbit IgG, # D110058, Sangon Biotech). The Image J program was performed for quantitative analysis of the immunoreactive bands.

FL-AR^F876L/T877A = FL-AR^F876L/T877A (Homo sapiens, UniProt P10275, F877L/T878A); test: Dual-luciferase reporter assay for FL-AR F876L/T877A in PC3 cells
Experimental: Luciferase Reporter Assays for FL -ARF876L and FL-ARF876L/T877A
constructed on the basis of the human full length wild type AR plasmid pCMV -hAR
transfected with 70 ng/well of FL -AR plasmid together with 24 ng of ARR2PB -Luc, and 5 ng of Renilla. After 1 day incubation at 37 °C , the antagonistic models were employed

AR LBD dimerization = target: T2, AR LBD dimerization (Homo sapiens, UniProt P10275); test: Acceptor photobleaching FRET microscopy assay in HEK293T cells; assay type: cell-based; details: 10 μM, 10 nM DHT
T2 construct: LBD residues (613 -920); expressed in transfected cells; host or cells: HEK293T
Experimental: (22.86 nM - 50 μM). After another 24 h incubation, the luciferase activities were determined by the Dual -Glo Luciferase system (#E1910, Promega) according to the […]
Acceptor Photobleaching Fluorescence Resonance Energy Transfer (FRET) […]
The pCMV-cyan fluorescent protein (CFP, #D2623) and pCMV -yellow fluorescent protein (YFP, #D2716) plasmids were purchased from Beyotime Biotechnology. We constructed pCMV -YFP-(AR LBD) and pCMV -(AR LBD)-CFP by cloning human AR LBD residues (613 -920) into the fluorescent protein vector using seamless cloning kit (#C112-01, CloneExpress II, Vazyme). HEK293T (1× 10^5 cells/well) cells were cultured in 5% CSS DMEM media in 12-well plate with glass coverslips. The next day, ce lls were transfected with 400 ng pCMV -YFP-(AR LBD), 400 ng pCMV -(AR LBD) -CFP together with HG -Trans Gene TM transfection reagent (#TG-10012, Health & Gene™). Free YFP and CFP proteins were transfected together as control. […]
The FRET assay was then tested by Olympus FV1000 equipped with a UPlanSApo 60× /1.35 NA oil objective. CFP was detected using 405 nm excitation while YFP was excited using 515 nm at moderate laser power, and the emission was detected using a 480-495 nm bandpass emission filter and 535-565 nm bandpass emission filter, respectively.
The first pair of CFPbefore and YFPbefore was collected. […] The apparent FRET efficiency was calculated after background […]

Sequence of FL-AR^F876L/T877A (P10275 whole entry F877L/T878A, the tested form may be a part): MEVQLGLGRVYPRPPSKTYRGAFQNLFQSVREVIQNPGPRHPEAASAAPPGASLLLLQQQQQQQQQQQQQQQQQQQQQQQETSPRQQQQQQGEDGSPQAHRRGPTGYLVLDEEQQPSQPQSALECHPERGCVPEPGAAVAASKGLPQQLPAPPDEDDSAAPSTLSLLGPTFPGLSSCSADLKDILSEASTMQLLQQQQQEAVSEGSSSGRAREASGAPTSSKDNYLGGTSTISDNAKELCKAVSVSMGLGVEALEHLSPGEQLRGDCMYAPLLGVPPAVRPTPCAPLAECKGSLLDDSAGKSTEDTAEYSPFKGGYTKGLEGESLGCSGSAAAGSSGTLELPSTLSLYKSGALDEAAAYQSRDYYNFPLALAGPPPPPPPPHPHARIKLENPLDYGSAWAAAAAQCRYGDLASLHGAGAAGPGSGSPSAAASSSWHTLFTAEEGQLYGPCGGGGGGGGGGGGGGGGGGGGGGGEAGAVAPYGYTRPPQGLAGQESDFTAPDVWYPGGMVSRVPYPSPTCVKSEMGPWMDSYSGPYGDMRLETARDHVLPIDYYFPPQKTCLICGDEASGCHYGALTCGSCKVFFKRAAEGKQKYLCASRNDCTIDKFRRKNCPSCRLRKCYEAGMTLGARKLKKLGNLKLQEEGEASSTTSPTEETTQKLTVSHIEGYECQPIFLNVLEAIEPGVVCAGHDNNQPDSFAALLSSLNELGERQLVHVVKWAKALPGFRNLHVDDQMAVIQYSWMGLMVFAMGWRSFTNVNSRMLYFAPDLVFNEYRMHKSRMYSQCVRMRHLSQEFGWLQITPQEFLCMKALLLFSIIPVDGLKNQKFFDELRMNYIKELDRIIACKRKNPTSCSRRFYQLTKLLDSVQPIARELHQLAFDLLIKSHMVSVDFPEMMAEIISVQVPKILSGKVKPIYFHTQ
T2 sequence (P10275 613-920): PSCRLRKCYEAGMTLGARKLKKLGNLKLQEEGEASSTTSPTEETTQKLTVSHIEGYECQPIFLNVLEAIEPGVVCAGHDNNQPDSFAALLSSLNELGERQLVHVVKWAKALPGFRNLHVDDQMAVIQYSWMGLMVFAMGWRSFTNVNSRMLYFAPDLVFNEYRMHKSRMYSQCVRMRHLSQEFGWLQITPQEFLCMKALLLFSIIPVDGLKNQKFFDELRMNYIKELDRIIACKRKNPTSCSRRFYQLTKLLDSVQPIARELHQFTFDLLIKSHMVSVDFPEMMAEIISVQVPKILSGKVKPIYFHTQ
T1 sequence (P15207 651-882 limits assumed): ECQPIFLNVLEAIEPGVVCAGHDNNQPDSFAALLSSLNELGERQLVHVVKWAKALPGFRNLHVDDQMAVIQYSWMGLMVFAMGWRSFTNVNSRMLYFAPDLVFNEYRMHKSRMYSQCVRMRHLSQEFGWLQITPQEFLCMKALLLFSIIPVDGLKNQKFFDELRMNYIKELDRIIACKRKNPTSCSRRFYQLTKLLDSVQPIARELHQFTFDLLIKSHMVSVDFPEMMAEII

binding to the conventional LBP (AR LBP): does not target the LBP
IC50 (FL-AR^F876L/T877A): 150 nM
FRET efficiency (AR LBD dimerization) (AR LBD dimerization): lower FRET efficiency
SMILES: CC(=O)Cc1nsc(NC(=O)c2cc(-c3cccc(C(F)(F)F)c3)oc2C)n1 [Compound M17-B15]
AR levels (Western blot) ([1]; LNCaP): does not affect
endogenous PSA production (Western blot) ([1]; LNCaP, 0.1, 1, 10 μM): remarkably inhibited
